Source: US20250099474A1 (priority 2022, published 2025)

Experiments:
SARS-CoV-2 [1] = experiment: Phase 2/3 study, Phase 2b Part: score of 12 COVID-19 symptoms per unit time; type: in vivo, human; conditions: for Change from baseline up to 120 hours in total score of 12 COVID-19 symptoms per unit time: Adjusted mean value by covariance analysis (standard error) / Change from baseline up to 120 hours in total score of 12 COVID-19 symptoms per unit time: Difference of adjusted mean value from that of placebo group (standard error) / Change from baseline up to 120 hours in total score of 12 COVID-19 symptoms per unit time: Maximum value / Change from baseline up to 120 hours in total score of 12 COVID-19 symptoms per unit time: Mean value / Change from baseline up to 120 hours in total score of 12 COVID-19 symptoms per unit time: Median value / Change from baseline up to 120 hours in total score of 12 COVID-19 symptoms per unit time: Minimum value: mild/moderate patients, ITT1 population
Experimental: The primary endpoints of Phase 2b Part were the time-weighted average change in the total score of 12 COVID-19 symptoms per unit time from the start of the first administration (Day 1) to 120 hours (Day 6), and the change from baseline in SARS-CoV-2 virus titer on Day 4, in mild/moderate SARS-CoV-2-infected patients, and the clinical improvement and the antiviral effect of the active drug were confirmed.
The administration of the active drug is repeated oral administration once a day for 5 days. The 375/125 mg group received 375 mg on Day 1 as a loading dose and 125 mg on Days 2 to 5 as a maintenance dose. The 750/250 mg group received 750 mg on Day 1 as a loading dose and 250 mg on Days 2 to 5 as a maintenance dose.
The primary efficacy endpoints of Phase 2b Part for mild/moderate SARS-CoV-2-infected patients were the time-weighted average change in the total score of 12 COVID-19 symptoms per unit time from the start of the first administration (Day 1) to 120 hours (Day 6), and the change from baseline in SARS-CoV-2 virus titer on Day 4. The total score of 12 COVID-19 symptoms is the sum of the scores determined by evaluation in four grades (0: none, 1: mild, 2: moderate, 3: severe) in the subject daily records for each of the 12 COVID-19 symptoms (low energy and tiredness, muscle or body aches, headache, chills or shivering, feeling hot or feverish, stuffy and runny nose, sore throat, cough, shortness of breath (difficulty breathing), nausea, vomiting, diarrhea).
Pairwise comparison was performed between each active drug dose group and the placebo group. […] Pairwise comparison was performed between each active drug dose group and the placebo group.
The results of classifying the twelve COVID-19 symptoms shown in the above (2-a) into 5 types (acute symptoms, major clinical symptoms, respiratory symptoms, systemic symptoms, and gastrointestinal symptoms) and analyzing the same (ITT population) are shown in the following table. • Acute symptoms: sore throat, cough, feeling hot and feverish • Major clinical symptoms: stuffy and runny nose, sore throat, cough, chills or shivering, feeling hot or feverish • Respiratory symptoms: stuffy and runny nose, sore throat, cough, shortness of breath (difficulty breathing) • Systemic symptoms: low energy and tiredness, muscle or body aches, headache, chills or shivering, feeling hot or feverish • Gastrointestinal symptoms: nausea, vomiting, diarrhea

SARS-CoV-2 [2] = experiment: Cytopathic effect (CPE) suppression effect confirmation test using VeroE6/TMPRSS2 cells; type: cell-based
[3] = monkey, in vivo
[4] = ITT population, 750/250 mg group

Question: Which “Change from baseline up to 120 hours in sub-total score per unit time, gastrointestinal symptoms: Maximum value” (SARS-CoV-2 [1]; [4]) does the source give for `Cn1cnc(Cn2c(=O)[nH]/c(=N\c3cc4cn(C)nc4cc3Cl)n(Cc3cc(F)c(F)cc3F)c2=O)n1` [(6E)-6-[(6-chloro-2-methyl-2H-indazol-5-yl)imino]-3-[(1-methyl-1H-1,2,4-triazol-3-yl)methyl]-1-[(2,4,5-trifluorophenyl)methyl]-1,3,5-triazinane-2,4-dione] here?
Answer: 0.50

Question: And the “Change from baseline up to 120 hours in sub-total score per unit time, gastrointestinal symptoms: Mean value” (SARS-CoV-2 [1]; [4])?
Answer: −1.13

Question: And the “Change from baseline up to 120 hours in sub-total score per unit time, gastrointestinal symptoms: Median value” (SARS-CoV-2 [1]; [4])?
Answer: −0.79

Question: And the “Change from baseline up to 120 hours in sub-total score per unit time, gastrointestinal symptoms: Minimum value” (SARS-CoV-2 [1]; [4])?
Answer: −5.78

Question: And the “Change from baseline up to 120 hours in sub-total score per unit time, major clinical symptoms: Adjusted mean value by covariance analysis (standard error)” value (SARS-CoV-2 [1]; [4])?
Answer: −3.42 (0.14)

Question: And the “Change from baseline up to 120 hours in sub-total score per unit time, major clinical symptoms: Difference of adjusted mean value from that of placebo group (standard error)” value (SARS-CoV-2 [1]; [4])?
Answer: −0.42 (0.17)

Question: What about the “Change from baseline up to 120 hours in sub-total score per unit time, major clinical symptoms: Maximum value” (SARS-CoV-2 [1]; [4]) of the same compound?
Answer: 0.39

Question: What about the “Change from baseline up to 120 hours in sub-total score per unit time, major clinical symptoms: Mean value” (SARS-CoV-2 [1]; [4]) of the same compound?
Answer: −3.54

Question: What about the “Change from baseline up to 120 hours in sub-total score per unit time, major clinical symptoms: Median value” (SARS-CoV-2 [1]; [4]) of the same compound?
Answer: −3.42

Question: What about the “Change from baseline up to 120 hours in sub-total score per unit time, major clinical symptoms: Minimum value” (SARS-CoV-2 [1]; [4]) of the same compound?
Answer: −10.11

Question: What about the “Change from baseline up to 120 hours in sub-total score per unit time, respiratory symptoms: Adjusted mean value by covariance analysis (standard error)” value (SARS-CoV-2 [1]; [4]) of the same compound?
Answer: −2.16 (0.12)

Question: And the “Change from baseline up to 120 hours in sub-total score per unit time, respiratory symptoms: Difference of adjusted mean value from that of placebo group (standard error)” value (SARS-CoV-2 [1]; [4])?
Answer: −0.44 (0.15)

Question: What about the “Change from baseline up to 120 hours in sub-total score per unit time, respiratory symptoms: Maximum value” (SARS-CoV-2 [1]; [4]) of the same compound?
Answer: 2.29

Question: And the “Change from baseline up to 120 hours in sub-total score per unit time, respiratory symptoms: Mean value” (SARS-CoV-2 [1]; [4])?
Answer: −2.33

Question: What about the “Change from baseline up to 120 hours in sub-total score per unit time, respiratory symptoms: Median value” (SARS-CoV-2 [1]; [4]) of the same compound?
Answer: −2.30

Question: And the “Change from baseline up to 120 hours in sub-total score per unit time, respiratory symptoms: Minimum value” (SARS-CoV-2 [1]; [4])?
Answer: −6.34

Question: What about the “Change from baseline up to 120 hours in sub-total score per unit time, systemic symptoms: Adjusted mean value by covariance analysis (standard error)” value (SARS-CoV-2 [1]; [4]) of the same compound?
Answer: −3.16 (0.14)

Question: And the “Change from baseline up to 120 hours in sub-total score per unit time, systemic symptoms: Difference of adjusted mean value from that of placebo group (standard error)” value (SARS-CoV-2 [1]; [4])?
Answer: 0.30 (0.17)

Question: And the “Change from baseline up to 120 hours in sub-total score per unit time, systemic symptoms: Maximum value” (SARS-CoV-2 [1]; [4])?
Answer: 2.71

Question: What about the “Change from baseline up to 120 hours in sub-total score per unit time, systemic symptoms: Mean value” (SARS-CoV-2 [1]; [4]) of the same compound?
Answer: −3.19

Question: And the “Change from baseline up to 120 hours in sub-total score per unit time, systemic symptoms: Median value” (SARS-CoV-2 [1]; [4])?
Answer: −2.81

Question: And the “Change from baseline up to 120 hours in sub-total score per unit time, systemic symptoms: Minimum value” (SARS-CoV-2 [1]; [4])?
Answer: −9.66

Question: What about the “Change from baseline up to 120 hours in total score of 12 COVID-19 symptoms per unit time: Adjusted mean value by covariance analysis (standard error)” value (SARS-CoV-2 [1]; 375/125 mg group) of the same compound?
Answer: −5.37 (0.24)

Question: And the “Change from baseline up to 120 hours in total score of 12 COVID-19 symptoms per unit time: Difference of adjusted mean value from that of placebo group (standard error)” value (SARS-CoV-2 [1]; 375/125 mg group)?
Answer: −0.24 (0.30)

Question: What about the “Change from baseline up to 120 hours in total score of 12 COVID-19 symptoms per unit time: Maximum value” (SARS-CoV-2 [1]; 375/125 mg group) of the same compound?
Answer: 2.43

Question: What about the “Change from baseline up to 120 hours in total score of 12 COVID-19 symptoms per unit time: Mean value” (SARS-CoV-2 [1]; 375/125 mg group) of the same compound?
Answer: −5.95

Question: What about the “Change from baseline up to 120 hours in total score of 12 COVID-19 symptoms per unit time: Median value” (SARS-CoV-2 [1]; 375/125 mg group) of the same compound?
Answer: −5.40

Question: What about the “Change from baseline up to 120 hours in total score of 12 COVID-19 symptoms per unit time: Minimum value” (SARS-CoV-2 [1]; 375/125 mg group) of the same compound?
Answer: −20.37

Question: And the “Change from baseline up to 120 hours in total score of 12 COVID-19 symptoms per unit time: Adjusted mean value by covariance analysis (standard error)” value (SARS-CoV-2 [1]; 750/250 mg group)?
Answer: −5.17 (0.23)

Question: What about the “Change from baseline up to 120 hours in total score of 12 COVID-19 symptoms per unit time: Difference of adjusted mean value from that of placebo group (standard error)” value (SARS-CoV-2 [1]; 750/250 mg group) of the same compound?
Answer: −0.04 (0.29)

Question: What about the “Change from baseline up to 120 hours in total score of 12 COVID-19 symptoms per unit time: Maximum value” (SARS-CoV-2 [1]; 750/250 mg group) of the same compound?
Answer: 2.47

Question: And the “Change from baseline up to 120 hours in total score of 12 COVID-19 symptoms per unit time: Mean value” (SARS-CoV-2 [1]; 750/250 mg group)?
Answer: −5.42

Question: And the “Change from baseline up to 120 hours in total score of 12 COVID-19 symptoms per unit time: Median value” (SARS-CoV-2 [1]; 750/250 mg group)?
Answer: −4.92

Question: And the “Change from baseline up to 120 hours in total score of 12 COVID-19 symptoms per unit time: Minimum value” (SARS-CoV-2 [1]; 750/250 mg group)?
Answer: −18.16

Question: And the EC50 (SARS-CoV-2 [2]; Severe acute respiratory syndrome coronavirus 2, VeroE6/TMPRSS2, Alpha strain (QHN001))?
Answer: 310 nM

Question: What about the EC50 (SARS-CoV-2 [2]; Severe acute respiratory syndrome coronavirus 2, VeroE6/TMPRSS2, Alpha strain (QHN002)) of the same compound?
Answer: 460 nM

Question: And the EC50 (SARS-CoV-2 [2]; Severe acute respiratory syndrome coronavirus 2, VeroE6/TMPRSS2, Alpha strain (QK002))?
Answer: 330 nM

Question: What about the EC50 (SARS-CoV-2 [2]; Severe acute respiratory syndrome coronavirus 2, VeroE6/TMPRSS2, Beta strain (TY8-612)) of the same compound?
Answer: 400 nM

Question: And the EC50 (SARS-CoV-2 [2]; Severe acute respiratory syndrome coronavirus 2, VeroE6/TMPRSS2, Delta strain (TY11-927-P1))?
Answer: 410 nM

Question: And the EC50 (SARS-CoV-2 [2]; Severe acute respiratory syndrome coronavirus 2, VeroE6/TMPRSS2, Gamma strain (TY7-501))?
Answer: 500 nM

Question: What about the EC50 (SARS-CoV-2 [2]; Severe acute respiratory syndrome coronavirus 2, VeroE6/TMPRSS2, Gamma strain (TY7-503)) of the same compound?
Answer: 430 nM

Question: And the EC50 (SARS-CoV-2 [2]; Severe acute respiratory syndrome coronavirus 2, VeroE6/TMPRSS2, Lambda strain (TY33-456))?
Answer: 270 nM

Question: And the EC50 (SARS-CoV-2 [2]; Severe acute respiratory syndrome coronavirus 2, VeroE6/TMPRSS2, Mu strain (TY26-717))?
Answer: 430 nM

Question: And the EC50 (SARS-CoV-2 [2]; Severe acute respiratory syndrome coronavirus 2, VeroE6/TMPRSS2, Omicron BA.1 strain (TY38-873))?
Answer: 290 nM

Question: And the EC50 (SARS-CoV-2 [2]; Severe acute respiratory syndrome coronavirus 2, VeroE6/TMPRSS2, Omicron BA.1.1 strain (TY38-871))?
Answer: 360 nM

Question: What about the EC50 (SARS-CoV-2 [2]; Severe acute respiratory syndrome coronavirus 2, VeroE6/TMPRSS2, Omicron BA.2 strain (TY40-385)) of the same compound?
Answer: 520 nM

Question: And the EC50 (SARS-CoV-2 [2]; Severe acute respiratory syndrome coronavirus 2, VeroE6/TMPRSS2, Omicron BA.2.12.1 strain (TY41-721))?
Answer: 240 nM

Question: What about the EC50 (SARS-CoV-2 [2]; Severe acute respiratory syndrome coronavirus 2, VeroE6/TMPRSS2, Omicron BA.2.75 strain (TY41-716)) of the same compound?
Answer: 300 nM

Question: What about the EC50 (SARS-CoV-2 [2]; Severe acute respiratory syndrome coronavirus 2, VeroE6/TMPRSS2, Omicron BA.4 strain (TY41-703)) of the same compound?
Answer: 220 nM

Question: And the EC50 (SARS-CoV-2 [2]; Severe acute respiratory syndrome coronavirus 2, VeroE6/TMPRSS2, Omicron BA.5 strain (TY41-702))?
Answer: 400 nM

Question: What about the EC50 (SARS-CoV-2 [2]; Severe acute respiratory syndrome coronavirus 2, VeroE6/TMPRSS2, Omicron BQ.1.1 strain (TY41-796)) of the same compound?
Answer: 480 nM

Question: And the EC50 (SARS-CoV-2 [2]; Severe acute respiratory syndrome coronavirus 2, VeroE6/TMPRSS2, Omicron XBB.1 strain (TY41-795))?
Answer: 330 nM

Question: What about the EC50 (SARS-CoV-2 [2]; Severe acute respiratory syndrome coronavirus 2, VeroE6/TMPRSS2, Omicron XE strain (TY41-686)) of the same compound?
Answer: 440 nM

Question: And the EC50 (SARS-CoV-2 [2]; Severe acute respiratory syndrome coronavirus 2, VeroE6/TMPRSS2, Theta strain (TY28-444))?
Answer: 290 nM

Question: And the “NOAEL (plasma concentration)” value [3]?
Answer: 75.2 to 77.6 µg/mL
